We go through 41 compounds from patent publication US6498179B1, “Oxazole derivatives, their production and use” (Takeda Chemical Industries, Ltd., priority 1996, dated 2002).

The first data set relates to KKA^y mice. Description: Test for blood sugar depression in mice. It counts as in vivo. The conditions noted are these: Mus musculus, 1 h; fasted male KKA^y mice, oral 30 mg/kg, 60 minutes after administration, compared with control group; read-out: Degree of Blood Glucose Depression (%) After 60 minutes. As to the method:
After being fasted for 20 hours, 9- to 12-week-old, male KKA^y mice (five mice in each group) were orally given the test compound at a dose of 30 mg/kg/10 ml through a stomach tube. Control mice were orally given 5% gum arabic solution. Blood samples (70 μl) were obtained from orbital venous plexus through capillary tube before and 60 and 120 minutes after the administration of the test compound. Blood glucose was determined according to a glucose oxidase method using a commercial kit (Iatrochem, GIU(A), Iatron Labs. Inc.). Blood glucose level at 60 or 120 minutes of the test groups was compared with that of control group, and was shown as blood glucose depression (%) (Table 1).
With `O=C(O)CCc1oc(Sc2ccccn2)nc1-c1ccc(Cl)cc1` [Example 15, 4-(4-chlorophenyl)-2-(2-pyridylthio)-5-oxazolepropionic acid], the inhibition in vivo at 30 mg/kg came out at 22%. For the compound `Cc1nccn1-c1nc(-c2ccc(Cl)cc2)c(CCC(=O)O)o1` [Example 25, 4-(4-chlorophenyl)-2-(2-methyl-1-imidazolyl)-5-oxazolepropionic acid], the inhibition in vivo at 30 mg/kg was determined as 38%. Still for that read-out and setting: the figure for `CCc1nccn1-c1nc(-c2ccc(Cl)cc2)c(CCC(=O)O)o1` [Example 26, 4-(4-chlorophenyl)-2-(2-ethyl-1-imidazolyl)-5-oxazolepropionic acid] is 32%; for `O=C(O)CCc1oc(-n2cccn2)nc1-c1ccc(Cl)cc1` [Example 28, 4-(4-chlorophenyl)-2-(1-pyrazolyl)-5-oxazolepropionic acid] it is 24%; for `CC(C)c1nccn1-c1nc(-c2ccc(Cl)cc2)c(CCC(=O)O)o1` [Example 31, 4-(4-chlorophenyl)-2-(2-isopropyl-1-imidazolyl)-5-oxazolepropionic acid] it is 27%.

The same data set, now with this note: Mus musculus, 2 h; fasted male KKA^y mice, oral 30 mg/kg, 120 minutes after administration, compared with control group; read-out: Degree of Blood Glucose Depression (%) After 120 minutes.
`O=C(O)CCc1oc(Sc2ccccn2)nc1-c1ccc(Cl)cc1` [Example 15, 4-(4-chlorophenyl)-2-(2-pyridylthio)-5-oxazolepropionic acid]: the inhibition in vivo at 30 mg/kg came out at 26%. Same read-out and setting: for `Cc1nccn1-c1nc(-c2ccc(Cl)cc2)c(CCC(=O)O)o1` [Example 25, 4-(4-chlorophenyl)-2-(2-methyl-1-imidazolyl)-5-oxazolepropionic acid] the value was 27%. The same measure, in the same setting: for `CCc1nccn1-c1nc(-c2ccc(Cl)cc2)c(CCC(=O)O)o1` [Example 26, 4-(4-chlorophenyl)-2-(2-ethyl-1-imidazolyl)-5-oxazolepropionic acid] the value was 27%; for `O=C(O)CCc1oc(-n2cccn2)nc1-c1ccc(Cl)cc1` [Example 28, 4-(4-chlorophenyl)-2-(1-pyrazolyl)-5-oxazolepropionic acid], 33%; for `CC(C)c1nccn1-c1nc(-c2ccc(Cl)cc2)c(CCC(=O)O)o1` [Example 31, 4-(4-chlorophenyl)-2-(2-isopropyl-1-imidazolyl)-5-oxazolepropionic acid], 28%.

Tested on in another data set: not given
Test: not given
Conditions: not given
For the compound `Cc1nccn1-c1nc(-c2ccc(Cl)cc2)c(CCC(=O)NCCCl)o1`, the melting point (commonly the temperature of the solid-liquid transition) lay in the range of 155 to 156 °C.

Take `Cc1nccn1-c1nc(-c2ccc(Cl)cc2)c(CCCC(=O)NCCCl)o1`: the melting point lay in the range of 131 to 132 °C.

The compound `Cc1nccn1-c1nc(-c2ccc(Cl)cc2)c(CCCCCn2ccnc2)o1.Cl.Cl.O` (hydrate or solvate) registered a melting point of 197 to 199 °C. For `COC(=O)CCc1oc(Cl)nc1-c1ccc(Cl)cc1` [Example 1, methyl 2-chloro-4-(4-chlorophenyl)-5-oxazolepropionate], the melting point is 71 to 72 °C. The same measure, in the same setting: for `O=C(O)CCc1oc(Cl)nc1-c1ccc(Cl)cc1` [Example 2, 2-chloro-4-(4-chlorophenyl)-5-oxazolepropionic acid] the value was 169 to 170 °C; for `CCOc1nc(-c2ccc(Cl)cc2)c(CCC(=O)O)o1` [Example 3, 4-(4-chlorophenyl)-2-ethoxy-5-oxazolepropionic acid], 148 to 149 °C; for `CC(C)Oc1nc(-c2ccc(Cl)cc2)c(CCC(=O)O)o1` [Example 4, 4-(4-chlorophenyl)-2-isopropoxy-5-oxazolepropionic acid], 116 to 117 °C. Same read-out and setting: for `O=C(O)CCc1oc(Oc2ccccc2)nc1-c1ccc(Cl)cc1` [Example 5, 4-(4-chlorophenyl)-2-phenoxy-5-oxazolepropionic acid] the value was 136 to 137 °C. Same read-out and setting: for `CSc1nc(-c2ccc(Cl)cc2)c(CCC(=O)O)o1` [Example 6, 4-(4-chlorophenyl)-2-methylthio-5-oxazolepropionic acid] the value was 183 to 184 °C. Turning to `CC(C)Sc1nc(-c2ccc(Cl)cc2)c(CCC(=O)O)o1` [Example 7, 4-(4-chlorophenyl)-2-isopropylthio-5-oxazolepropionic acid], the melting point is 132 to 133 °C.

In the case of `O=C(O)CCc1oc(SCc2ccccn2)nc1-c1ccc(Cl)cc1` [Example 8, 4-(4-chlorophenyl)-2-(2-pyridylmethylthio)-5-oxazolepropionic acid], the melting point is 125 to 126 °C. On the same count and under the same terms, for `O=C(O)CCc1oc(SCc2cccnc2)nc1-c1ccc(Cl)cc1` [Example 9, 4-(4-chlorophenyl)-2-(3-pyridylmethylthio)-5-oxazolepropionic acid] the value was 129 to 130 °C.

Compound `O=C(O)CCc1oc(Sc2ccccc2)nc1-c1ccc(Cl)cc1` [Example 10, 4-(4-chlorophenyl)-2-phenylthio-5-oxazolepropionic acid] had a melting point of 156 to 157 °C. Same read-out and setting: for `Cc1ccc(Sc2nc(-c3ccc(Cl)cc3)c(CCC(=O)O)o2)cc1` [Example 11, 4-(4-chlorophenyl)-2-(4-methylphenylthio)-5-oxazolepropionic acid] the value was 160 to 161 °C; for `CNc1nc(-c2ccc(Cl)cc2)c(CCC(=O)O)o1` [Example 16, 4-(4-chlorophenyl)-2-methylamino-5-oxazolepropionic acid], 217 to 218 °C; for `O=C(O)CCc1oc(N2CCOCC2)nc1-c1ccc(Cl)cc1` [Example 18, 4-(4-chlorophenyl)-2-morpholino-5-oxazolepropionic acid], 180 to 181 °C. In turn, `O=C(O)CCc1oc(-n2ccnc2)nc1-c1ccc(Cl)cc1` [Example 24, 4-(4-chlorophenyl)-2-(1-imidazolyl)-5-oxazolepropionic acid] displayed a melting point of 194 to 195 °C. Regarding `CCCc1nccn1-c1nc(-c2ccc(Cl)cc2)c(CCC(=O)O)o1` [Example 30, 4-(4-chlorophenyl)-2-(2-propyl-1-imidazolyl)-5-oxazolepropionic acid], the melting point is 174 to 175 °C.

With `Cc1nccn1-c1nc(-c2ccc(Cl)cc2)c(CCC(N)=O)o1` [Example 41, 4-(4-chlorophenyl)-2-(2-methyl-1-imidazolyl)-5-oxazolepropionamide], the melting point fell in the range of 215 to 216 °C.

For the compound `Cc1nccn1-c1nc(-c2ccc(Cl)cc2)c(CCC2=NCCO2)o1` [Example 46, 4-(4-chlorophenyl)-2-(2-methyl-1-imidazolyl)-5-[2-(2-oxazolin-2-yl)ethyl]oxazole], the melting point was in the range of 119 to 120 °C. Turning to `CCc1nccn1-c1nc(-c2ccc(Cl)cc2)c(CCC2=NCCO2)o1` [Example 50, 4-(4-chlorophenyl)-2-(2-ethyl-1-imidazolyl)-5-[2-(2-oxazolin-2-yl)ethyl]oxazole], the melting point lay within 53 to 54 °C. With `CCOC(=O)CCc1oc(-n2ccnc2C)nc1-c1ccc(Cl)cc1` [Example 52, ethyl 4-(4-chlorophenyl)-2-(2-methyl-1-imidazolyl)-5-oxazolepropionate], the melting point is 70 to 71 °C. Same read-out and setting: the figure for `OCCCc1oc(-n2ccnc2)nc1-c1ccc(Cl)cc1` [Example 57, 4-(4-chlorophenyl)-2-(1-imidazolyl)-5-oxazolepropanol] is 114 to 115 °C; for `Cc1nccn1-c1nc(-c2ccc(Cl)cc2)c(CCC2=NCCS2)o1` [Example 60, 4-(4-chlorophenyl)-2-(2-methyl-1-imidazolyl)-5-[2-(2-thiazolin-2-yl)ethyl]oxazole] it is 73 to 74 °C. The same measure, in the same setting: for `O=C(O)CCCc1oc(Cl)nc1-c1ccc(Cl)cc1` [Example 62, 2-chloro-4-(4-chlorophenyl)-5-oxazolebutyric acid] the value was 211 to 212 °C; for `CCOC(=O)CCCc1oc(-n2ccnc2C)nc1-c1ccc(Cl)cc1` [Example 64, ethyl 4-(4-chlorophenyl)-2-(2-methyl-1-imidazolyl)-5-oxazolebutyrate], 72 to 73 °C; for `Cc1nccn1-c1nc(-c2ccc(Cl)cc2)c(CCCC2=NCCO2)o1` [Example 67, 4-(4-chlorophenyl)-2-(2-methyl-1-imidazolyl)-5-[3-(2-oxazolin-2-yl)propyl]oxazole], 88 to 89 °C. On the same count and under the same terms, the figure for `CON(C)C(=O)CCc1oc(-n2ccnc2C)nc1-c1ccc(Cl)cc1` [Example 68, N-methoxy-N-methyl-4-(4-chlorophenyl)-2-(2-methyl-1-imidazolyl)-5-oxazolepropionamide] is 116 to 117 °C; for `Cc1nccn1-c1nc(-c2ccc(Cl)cc2)c(CCC=O)o1` [Example 69, 4-(4-chlorophenyl)-2-(2-methyl-1-imidazolyl)-5-oxazolepropionaldehyde] it is 109 to 110 °C. On to `Cc1nccn1-c1nc(-c2ccc(Cl)cc2)c(CCC2NCCS2)o1` (stereo not shown) [Example 70, 2-[2-[4-(4-chlorophenyl)-2-(2-methyl-1-imidazolyl)-5-oxazolyl]ethyl]thiazolidine], for which the melting point was 110 to 111 °C.

Compound `Cc1nccn1-c1nc(-c2ccc(Cl)cc2)c(CCCOS(C)(=O)=O)o1` [Example 71, 3-[4-(4-chlorophenyl)-2-(2-methyl-1-imidazolyl)-5-oxazolyl]propyl methanesulfonate] had a melting point of 97 to 98 °C.

`Cc1nccn1-c1nc(-c2ccc(Cl)cc2)c(CCO)o1` [Example 78, 4-(4-chlorophenyl)-2-(2-methyl-1-imidazolyl)-5-oxazolethanol] displayed a melting point of 159 to 160 °C. The same measure, in the same setting: for `CCOC(=O)CCCCc1oc(-n2ccnc2C)nc1-c1ccc(Cl)cc1` [Example 81, ethyl 4-(4-chlorophenyl)-2-(2-methyl-1-imidazolyl)-5-oxazolepentanoate] the value was 93 to 94 °C; for `Cc1nccn1-c1nc(-c2ccc(Cl)cc2)c(CCCCCCO)o1` [Example 84, 4-(4-chlorophenyl)-2-(2-methyl-1-imidazolyl)-5-oxazolehexanol], 70 to 71 °C.

The compound `Cc1nccn1-c1nc(-c2ccc(Cl)cc2)c(CCCCn2cncn2)o1` [Example 88, 1-[4-[4-(4-chlorophenyl)-2-(2-methyl-1-imidazolyl)-5-oxazolyl]butyl]1,2,4-triazole] displayed a melting point of 74 to 75 °C. On the same count and under the same terms, the figure for `CCOC(=O)c1nccn1CCCCc1oc(-n2ccnc2C)nc1-c1ccc(Cl)cc1` [Example 92, ethyl 1-[4-[4-(4-chlorophenyl)-2-(2-methyl-1-imidazolyl)-5-oxazolyl]butyl]-2-imidazolecarboxylate] is 134 to 135 °C.
